Where a name gives a salt, the structure may show the parent alone.
Columns and labels:
HCT116 [1] = test: efficacy (maximum % inhibition of viability vs DMSO); higher = more cytotoxic; details: 72 h
In short: (§1)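 HCT116 cells were seeded at 250 per well in 1536-well plates with 5 h allowed for attachment. CellTiter-Glo luminescence was normalized against vehicle (0%) and positive control (-100%) before pattern correction. The IC50 and maximal efficacy figures derive from four-parameter Hill fits.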

HCT116 [2] = details: 72 h
In short: as §1

IC50 cell viability (HCT116 [2]; ICRF193 0 nM) [µM] | IC50 cell viability (HCT116 [2]; ICRF193 200 nM) [µM] | Structure (SMILES) | efficacy (HCT116 [1]; ICRF193 0 nM) [%] | efficacy (HCT116 [1]; ICRF193 200 nM) [%]
0.092 | 0.0461 | Nc1ccn([C@@H]2O[C@H](CO)[C@@H](O)C2(F)F)c(=O)n1 [Gemcitabine] | 53.5 | 56
> 45.8 | 16.4 | O=c1c(-c2ccc(O)cc2)coc2cc(O)cc(O)c12 [Genistein] |  | 42.9
0.183 | > 45.8 | CC[C@@]1(O)C(=O)OCc2c1cc1n(c2=O)Cc2c-1nc1ccccc1c2/C=N/OC(C)(C)C [Gimatecan] | 48.8 | 
> 45.8 | 3.18 | N[C@@H](CCC(=O)N[C@@H](CS)C(=O)NCC(=O)O)C(=O)O [Glutathione] |  | 79.8
18.3 | 10.3 | CN(C)c1ccc(C(=C2C=CC(=[N+](C)C)C=C2)c2c(O)c(S(=O)(=O)[O-])cc3cc(S(=O)(=O)O)ccc23)cc1 [Green S] | 93.6 | 79.5
29.1 | 20.6 | COC1=CC(=O)C[C@@H](C)[C@]12Oc1c(Cl)c(OC)cc(OC)c1C2=O [Griseofulvin] | 66.1 | 65
23.1 | > 45.8 | N=C(N)N/N=C/c1c(Cl)cccc1Cl [Guanabenz] | 45.5 | 
23.1 | 20.6 | CCCCN(CCCC)CCC(O)c1cc2c(Cl)cc(Cl)cc2c2cc(C(F)(F)F)ccc12 (centres undefined) [Halofantrine] | 66.9 | 87.4
25.9 | 20.6 | Clc1cc(Cl)c(OCC#CI)cc1Cl [Haloprogin] | 89.7 | 93.8
2.59 | 6.51 | Oc1c(Cl)cc(Cl)c(Cl)c1Cc1c(O)c(Cl)cc(Cl)c1Cl [Hexachlorophene] | 82.5 | 45.6
5.8 | 7.3 | CCCCCCCCCCCCCCCC[N+](C)(C)C [Hexadecyltrimethylammonium bromide] | 103 | 91.6
16.4 | 20.6 | CC[C@H](c1ccc(O)cc1)[C@@H](CC)c1ccc(O)cc1 [Hexestrol] | 69.4 | 64.6
20.6 | 29.1 | CN1CCCN(C(c2ccccc2)c2ccc(Cl)cc2)CC1 (centres undefined) [Homochlorcyclizine] | 71.7 | 84.3
> 45.8 | 16.4 | CCCCCC(=O)O[C@]1(C(C)=O)CC[C@H]2[C@@H]3CCC4=CC(=O)CC[C@]4(C)[C@H]3CC[C@@]21C [Hydroxyprogesterone caproate] |  | 56.4
29.1 | > 45.8 | CC1(C)C(/C=C/C=C/C=C/C=C2\N(CCCCS(=O)(=O)O)c3ccc4ccccc4c3C2(C)C)=[N+](CCCCS(=O)(=O)[O-])c2ccc3ccccc3c21 [INDOCYANINE GREEN] | 43.6 | 
1.64 | 0.58 | CC(=O)[C@]1(O)Cc2c(O)c3c(c(O)c2[C@@H](O[C@H]2C[C@H](N)[C@H](O)[C@H](C)O2)C1)C(=O)c1ccccc1C3=O [Idarubicin hydrochloride] | 80.9 | 78.8
20.6 | 20.6 | COC1=C(OC)C(=O)C(CCCCCCCCCCO)=C(C)C1=O [Idebenone] | 49.5 | 56.6
> 45.8 | 29.1 | CC[C@H](Nc1ncnc2[nH]cnc12)c1nc2cccc(F)c2c(=O)n1-c1ccccc1 [Idelalisib] |  | 42.6
> 45.8 | 23.1 | COc1cc(C(C)=O)ccc1OCCCN1CCC(c2noc3cc(F)ccc23)CC1 [Iloperidone] |  | 49.6
> 45.8 | 29.1 | C=CCOC(Cn1ccnc1)c1ccc(Cl)cc1Cl (centres undefined) [Imazalil sulfate] |  | 44.8
> 45.8 | 13 | CN(C)CCCN1c2ccccc2CCc2ccccc21 [Imipramine] |  | 40.6
18.3 | 20.6 | CCc1cc2c(cc1CC)CC(NC[C@H](O)c1ccc(O)c3[nH]c(=O)ccc13)C2 [Indacaterol (maleate)] | 82.9 | 91.6
> 45.8 | 23.1 | C/C=C(/C)C(=O)O[C@H]1C(C)=C[C@]23C(=O)[C@@H](C=C(CO)[C@@H](O)[C@]12O)[C@H]1[C@@H](C[C@H]3C)C1(C)C [Ingenol mebutate] |  | 60.3
13 | 10.3 | Oc1c(I)cc(I)c2cccnc12 [Iodoquinol] | 84.8 | 91.7
13 | 23.1 | CCc1c2c(nc3ccc(OC(=O)N4CCC(N5CCCCC5)CC4)cc13)-c1cc3c(c(=O)n1C2)COC(=O)[C@]3(O)CC [Irinotecan] | 79.8 | 102

IC50 cell viability (HCT116 [2]; ICRF193 0 nM) [µM] | IC50 cell viability (HCT116 [2]; ICRF193 200 nM) [µM] | Structure (SMILES) | efficacy (HCT116 [1]; ICRF193 0 nM) [%] | efficacy (HCT116 [1]; ICRF193 200 nM) [%]
> 45.8 | 8.2 | C[C@@H](c1nc(-c2ccc(C#N)cc2)cs1)[C@](O)(Cn1cncn1)c1cc(F)ccc1F [Isavuconazole] |  | 45.8
25.9 | 18.3 | Clc1ccc(C(Cn2ccnc2)OCc2c(Cl)cccc2Cl)c(Cl)c1 (centres undefined) [Isoconazole nitrate] | 87.5 | 82.6
29.1 | 18.3 | CCN(CC)c1ccc(C(=C2C=CC(=[N+](CC)CC)C=C2)c2cc(S(=O)(=O)O)ccc2S(=O)(=O)[O-])cc1 [Isosulfan blue] | 76.5 | 78.9
18.3 | 18.3 | CC(C)(C)c1cc(C(C)(C)C)c(NC(=O)c2c[nH]c3ccccc3c2=O)cc1O [Ivacaftor] | 96.4 | 98.6
0.92 | > 45.8 | C/C(=C\c1csc(C)n1)[C@@H]1C[C@@H]2O[C@]2(C)CCC[C@H](C)[C@H](O)[C@@H](C)C(=O)C(C)(C)[C@@H](O)CC(=O)N1 [Ixabepilone] | 72.5 | 
0.0651 | 0.058 | CC(C)C[C@H](NC(=O)CNC(=O)c1cc(Cl)ccc1Cl)B(O)O [Ixazomib] | 92.8 | 92.6
> 45.8 | 13 | CC(=O)N1CCN(c2ccc(OCC3COC(Cn4ccnc4)(c4ccc(Cl)cc4Cl)O3)cc2)CC1 (centres undefined) [Ketoconazole] |  | 55.8
11.6 | 16.4 | CCOC(=O)[C@@H](N)Cc1ccc(-c2cc(O[C@H](c3ccc(Cl)cc3-n3ccc(C)n3)C(F)(F)F)nc(N)n2)cc1 [LX1606 (Hippurate)] | 64.7 | 102
18.3 | 20.6 | CCOC(=O)C1=C(C)NC(C)=C(C(=O)OCC)C1c1ccccc1/C=C/C(=O)OC(C)(C)C [Lacidipine] | 94 | 108
16.4 | 20.6 | CS(=O)(=O)CCNCc1ccc(-c2ccc3ncnc(Nc4ccc(OCc5cccc(F)c5)c(Cl)c4)c3c2)o1 [Lapatinib] | 106 | 110
20.6 | 13 | Cc1oncc1C(=O)Nc1ccc(C(F)(F)F)cc1 [Leflunomide] | 57.6 | 55.8
23.1 | 25.9 | COC(=O)C1=C(C)NC(COC(N)=O)=C(C(=O)OC(C)C)C1c1cccc(Cl)c1Cl (centres undefined) [Lemildipine] | 76.8 | 76.7
20.6 | 16.4 | COC(=O)C1=C(C)NC(C)=C(C(=O)OC(C)(C)CN(C)CCC(c2ccccc2)c2ccccc2)C1c1cccc([N+](=O)[O-])c1 (centres undefined) [Lercanidipine hydrochloride] | 102 | 89.3
20.6 | 16.4 | CCCC[C@H](C)C[C@H](O)/C=C/[C@H]1[C@H](O)CC(=O)[C@@H]1CCCC/C=C/C(=O)O [Limaprost] | 81.4 | 77.6
20.6 | 23.1 | COc1ccc(CN2CCN(C(c3ccc(F)cc3)c3ccc(F)cc3)CC2)c(OC)c1OC [Lomerizine dihydrochloride] | 130 | 104
16.4 | 20.6 | O=C(NC1CCN(CCCCC2(C(=O)NCC(F)(F)F)c3ccccc3-c3ccccc32)CC1)c1ccccc1-c1ccc(C(F)(F)F)cc1 [Lomitapide] | 117 | 115
14.6 | 18.3 | CN(C)C(=O)C(CCN1CCC(O)(c2ccc(Cl)cc2)CC1)(c1ccccc1)c1ccccc1 [Loperamide hydrochloride] | 59.4 | 54.9
18.3 | 29.1 | Cc1cccc(C)c1OCC(=O)N[C@@H](Cc1ccccc1)[C@@H](O)C[C@H](Cc1ccccc1)NC(=O)[C@H](C(C)C)N1CCCNC1=O [Lopinavir] | 50.2 | 73.7
> 45.8 | 20.6 | CC[C@H](C)C(=O)O[C@H]1C[C@@H](C)C=C2C=C[C@H](C)[C@H](CC[C@@H]3C[C@@H](O)CC(=O)O3)[C@H]21 [Lovastatin] |  | 46.5
> 45.8 | 20.6 | N#C/C(=C1/SC[C@@H](c2ccc(Cl)cc2Cl)S1)n1ccnc1 [Luliconazole] |  | 44.9
23.1 | 18.3 | CCCCN(CCCC)CC(O)c1cc(Cl)cc2c1-c1ccc(Cl)cc1/C2=C/c1ccc(Cl)cc1 (centres undefined) [Lumefantrine] | 120 | 113
> 45.8 | 29.1 | O=C1[C@@H]2[C@H]3CC[C@H](C3)[C@@H]2C(=O)N1C[C@@H]1CCCC[C@H]1CN1CCN(c2nsc3ccccc23)CC1 [Lurasidone (Hydrochloride)] |  | 46.3
> 45.8 | 29.1 | NCCCC[C@H](NC(=O)[C@@H]1CCCN1C(=O)[C@@H]1CSSC[C@H](N)C(=O)N[C@@H](Cc2ccc(O)cc2)C(=O)N[C@@H](Cc2ccccc2)C(=O)N[C@@H](CCC(N)=O)C(=O)N[C@@H](CC(N)=O)C(=O)N1)C(=O)NCC(N)=O [Lypressin] |  | 51.6
> 45.8 | 11.6 | CN1CCc2c(c3ccccc3n2Cc2ccccc2)C1 [MEBHYDROLIN] |  | 41.4
29.1 | 18.3 | NC(=O)c1cccc2cn(-c3ccc([C@@H]4CCCNC4)cc3)nc12 [MK-4827] | 72.9 | 114

Structure (SMILES) | IC50 cell viability (HCT116 [2]; ICRF193 0 nM) [µM] | IC50 cell viability (HCT116 [2]; ICRF193 200 nM) [µM] | efficacy (HCT116 [1]; ICRF193 0 nM) [%] | efficacy (HCT116 [1]; ICRF193 200 nM) [%]
C#C[C@]1(O)CC[C@H]2[C@@H]3CCC4=CC(=O)CCC4=C3C=C[C@@]21CC [Gestrinone] | 25.9 | > 45.8 | 56.7 | 
Cc1nnc2n1-c1sc(CCc3ccc(CC(C)C)cc3)cc1C(c1ccccc1Cl)=NC2C (centres undefined) [Israpafant] | 16.4 | 23.1 | 98.7 | 114
C=CCN1CC[C@]23CCCC[C@H]2[C@H]1Cc1ccc(O)cc13 [Levallorphan] | > 45.8 | 25.9 |  | 42.1
O=C(NC(=O)c1c(F)cccc1F)Nc1cc(Cl)c(OC(F)(F)C(F)C(F)(F)F)cc1Cl (centres undefined) [Lufenuron] | > 45.8 | 18.3 |  | 41.2

From the supplement of paper PMC12137928
